Results from patent US11860174B2, “Anti-cannabidiol antibody and uses thereof” (BOMI, LLC, priority 2017, dated 2024).

Target: T1, human CB2 receptors (Homo sapiens, UniProt P34972)
T1 construct: expressed in transfected cells; host or cells: CHO cells (membrane fraction)
Assay: CHO-CB2 radioligand displacement binding (filtration)
Settings: membranes of CB2 cells, Cheng & Prusoff, n = 3 or 4
Experimental: CHO cells and membrane preparation. These were stably transfected with cDNA encoding human CB2 receptors. […] Cells were maintained at 37° C. and 5% CO2 in DMEM (f-12 HAM) with 2 mm Glutamine, Geneticin (600 μg ml−1) and Hygromycin (300 μg ml−1). […] CHO cells were suspended in 50 mm Tris buffer (pH 7.4) and 0.32 m sucrose and homogenized with an Ultra-Turrex homogenizer. The homogenate was diluted with 50 mm Tris buffer (pH 7.4) and centrifuged at 50,000×g for 1 hour to isolate the membranes.
CHO—CB2 binding. […] Binding was initiated by the addition of cell membranes (20-30 μg protein). Assays were carried out at 30° C. for 90 minutes before termination by addition of ice-cold wash buffer (50 mm Tris buffer, 1 mg ml−1 BSA) and vacuum filtration using a 12-well sampling manifold (Brandel Cell Harvester) and Whatman GF/B glass-fibre filters that had been soaked in wash buffer at 4° C. for 24 hours. Each reaction tube was washed three times with a 4 ml aliquot of buffer. The filters were oven-dried for 60 minutes and then placed in 5 ml of scintillation fluid (Ultima Gold XR, Packard). Radioactivity was quantified by liquid scintillation spectrometry. Specific binding was defined as the difference between the binding that occurred in the presence and absence of 1 μm reference cannabidiol. Protein assays were performed using a Bio-Rad Dc kit. […] […] Competitive binding curves were fitted with minimum values for displacement of radio ligand from specific binding sites constrained to zero.
Additionally, binding of an MCA, described herein, was tested for this reference sample. The resulting displacement and binding values were used as a reference standard against which 26 CBD samples (acquired from Natural Hemp Solutions, Atlanta Ga.) were compared.

[1] = labelled cannabinoid [3H]-CP55940

T1 sequence (P34972 whole entry): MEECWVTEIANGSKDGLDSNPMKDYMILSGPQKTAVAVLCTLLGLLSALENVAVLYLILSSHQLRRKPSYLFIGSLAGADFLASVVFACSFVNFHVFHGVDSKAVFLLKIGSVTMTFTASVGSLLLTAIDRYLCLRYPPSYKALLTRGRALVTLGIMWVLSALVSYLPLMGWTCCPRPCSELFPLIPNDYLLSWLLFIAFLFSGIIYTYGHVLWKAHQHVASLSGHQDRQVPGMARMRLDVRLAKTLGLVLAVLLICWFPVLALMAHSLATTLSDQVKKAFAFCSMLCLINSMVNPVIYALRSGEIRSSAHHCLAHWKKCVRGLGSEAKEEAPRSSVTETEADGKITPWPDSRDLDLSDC

Row | Compound | Ki [1] [nM] | Ki (labelled cannabinoid [3H]-W1N55212-2) [nM]
1 | COc1ccc(C(=O)c2c(C)n(CCN3CCOCC3)c3cc(I)ccc23)cc1 [AM630] | 31.2 ± 12.4 | 37.5 ± 15.4
2 | CCCCCCC(C)(C)c1cc(OC)c2c(c1)OC(C)(C)[C@@H]1CC=C(C)C[C@@H]21 [Sample L759633] | 6.4 ± 2.2 | 
3 | C=C1CC[C@@H]2[C@@H](C1)c1c(OC)cc(C(C)(C)CCCCCC)cc1OC2(C)C [Sample L759656] | 11.8 ± 2.5 | 
